Data set [1] has as its target T1, Beta-glucuronidase (Bos taurus, UniProt A3KMY8).
T1 sequence (A3KMY8 whole entry): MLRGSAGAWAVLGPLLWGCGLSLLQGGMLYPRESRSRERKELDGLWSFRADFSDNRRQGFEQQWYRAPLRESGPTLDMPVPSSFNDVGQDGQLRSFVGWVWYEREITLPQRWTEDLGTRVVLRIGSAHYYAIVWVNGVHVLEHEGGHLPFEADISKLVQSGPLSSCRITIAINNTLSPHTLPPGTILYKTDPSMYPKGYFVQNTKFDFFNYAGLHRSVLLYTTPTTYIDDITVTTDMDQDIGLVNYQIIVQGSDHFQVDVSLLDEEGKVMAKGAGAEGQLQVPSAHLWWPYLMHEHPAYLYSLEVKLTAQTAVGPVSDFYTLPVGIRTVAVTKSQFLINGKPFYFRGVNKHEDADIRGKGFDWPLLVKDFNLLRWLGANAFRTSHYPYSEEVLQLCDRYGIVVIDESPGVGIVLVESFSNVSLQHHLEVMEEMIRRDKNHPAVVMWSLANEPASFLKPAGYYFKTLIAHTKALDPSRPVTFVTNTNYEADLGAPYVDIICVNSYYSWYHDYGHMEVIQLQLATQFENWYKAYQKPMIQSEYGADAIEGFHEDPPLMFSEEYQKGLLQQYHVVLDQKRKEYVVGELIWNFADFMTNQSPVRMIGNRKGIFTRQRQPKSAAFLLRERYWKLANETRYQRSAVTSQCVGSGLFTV
Briefly: Inhibition of bovine beta-glucuronidase.

Data set [2] addresses T2, Beta-glucuronidase (Bos taurus) (UniProt A3KMY8).
T2 sequence (whole entry): T1 sequence (A3KMY8 whole entry)
Briefly: Inhibition of bovine beta-glucuroniase assessed as decrease in enzyme inhibition in presence of BSA. Conditions: concentration not given here.

Substrate in data set [3]: C=C1C[C@@H](OC(=O)c2ccccc2)[C@@H]2[C@](C)(CCC[C@@]2(C)C(=O)O)[C@@H]1CC/C(C)=C/CO
Briefly: Activity at bovine beta-glucuroniase by Lineweaver-Burke plot. As to conditions: Bos taurus.

The IC50 is the concentration that inhibits the measured activity by half. Lower therefore signals greater potency. The inhibition is the relative decrease from the control value, in per cent. With `C=C1C[C@@H](OC(=O)c2ccccc2)[C@@H]2[C@](C)(CCC[C@@]2(C)C(=O)O)[C@@H]1CC/C(C)=C/CO` [SCOPARIC ACID A], in data set [1], the midpoint of inhibition, the IC50, lay at 6.8 µM. Further, the inhibition in data set [2] came out at 5%. With `C=C1C[C@@H](OC(=O)c2ccccc2)[C@@H]2[C@](C)(CCC[C@@]2(C)C(=O)O)[C@@H]1CCC(C)=O` [SCOPARIC ACID B], the IC50 in data set [1] was > 100 µM. Still for that read-out and setting: with `C=C(C=O)CC[C@@H]1C(=C)C[C@@H](OC(=O)c2ccccc2)[C@@H]2[C@]1(C)CCC[C@@]2(C)C(=O)O` [SCOPARIC ACID C] the figure was 10 µM.

B1: Beta-glucuronidase (Bos taurus), A3KMY8 (protein)
chain: T1 sequence (A3KMY8 whole entry)
Broadly, the Km is the concentration of substrate that gives half-maximal velocity. With B1, the Km in data set [3] is 14.3 mM.

The values above are taken from ChEMBL document CHEMBL1150064, “Scoparic acid A, a beta-glucuronidase inhibitor from Scoparia dulcis” (J Nat Prod, 1992).
